Activity calls are given as the source filed them. The calls are words filed in the database; no cut-off is given here.
Tests used:
HCT-116 = experiment: cells; type: functional, cell-based; conditions: Homo sapiens, HCT-116, 72 h
Description: Antiproliferative activity against human HCT-116 cells assessed as inhibition of cell proliferation measured after 72 hrs by MTT assay

[1] = target: T1, Hepatocyte growth factor receptor (Homo sapiens, UniProt P08581); conditions: dose 100.0 nM, time 10.0 min
[2] = target: T1, Hepatocyte growth factor receptor; experiment: Inhibition of c-MET(unknown origin) using FAM labelled peptide substrate preincubated for 10 mins followed by substrate addition and measured by microplate reader method
Histone deacetylase 1 [3] = target: T2, Histone deacetylase 1 (Homo sapiens, UniProt Q13547); experiment: Inhibition of human C-terminal Flag tagged HDAC1 (1 to 482 residues) expressed in SF9 cells using Ac-peptide substrate preincubated for 15 mins followed by substrate addition and measured after 60 mins by microplate reader method
T2 sequence (Q13547 whole entry, the tested form may be a part): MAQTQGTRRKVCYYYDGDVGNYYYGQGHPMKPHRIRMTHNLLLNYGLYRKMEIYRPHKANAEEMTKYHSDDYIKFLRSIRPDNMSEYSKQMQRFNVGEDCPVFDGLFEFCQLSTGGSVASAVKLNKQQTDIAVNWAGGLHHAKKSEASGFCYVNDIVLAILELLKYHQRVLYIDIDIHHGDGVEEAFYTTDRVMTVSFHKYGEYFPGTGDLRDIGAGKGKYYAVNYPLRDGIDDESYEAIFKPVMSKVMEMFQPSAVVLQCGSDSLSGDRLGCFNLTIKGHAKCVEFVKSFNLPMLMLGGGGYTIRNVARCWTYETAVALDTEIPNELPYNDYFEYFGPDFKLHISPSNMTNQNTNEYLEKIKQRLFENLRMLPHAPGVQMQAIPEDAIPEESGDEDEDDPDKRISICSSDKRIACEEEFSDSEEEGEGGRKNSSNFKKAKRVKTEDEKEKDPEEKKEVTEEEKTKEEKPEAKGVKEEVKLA

MCF7 = experiment: cells; type: functional, cell-based; conditions: Homo sapiens, MCF7, 72 h
Description: Antiproliferative activity against human MCF7 cells assessed as inhibition of cell proliferation measured after 72 hrs by MTT assay

Histone deacetylase 1 [4] = target: T2, Histone deacetylase 1; conditions: Sf9, dose 100.0 nM, time 75.0 min
A549 = experiment: cells; type: functional, cell-based; conditions: Homo sapiens, A549, 72 h
Description: Antiproliferative activity against human A549 cells assessed as inhibition of cell proliferation measured after 72 hrs by MTT assay

T1 sequence (P08581 whole entry): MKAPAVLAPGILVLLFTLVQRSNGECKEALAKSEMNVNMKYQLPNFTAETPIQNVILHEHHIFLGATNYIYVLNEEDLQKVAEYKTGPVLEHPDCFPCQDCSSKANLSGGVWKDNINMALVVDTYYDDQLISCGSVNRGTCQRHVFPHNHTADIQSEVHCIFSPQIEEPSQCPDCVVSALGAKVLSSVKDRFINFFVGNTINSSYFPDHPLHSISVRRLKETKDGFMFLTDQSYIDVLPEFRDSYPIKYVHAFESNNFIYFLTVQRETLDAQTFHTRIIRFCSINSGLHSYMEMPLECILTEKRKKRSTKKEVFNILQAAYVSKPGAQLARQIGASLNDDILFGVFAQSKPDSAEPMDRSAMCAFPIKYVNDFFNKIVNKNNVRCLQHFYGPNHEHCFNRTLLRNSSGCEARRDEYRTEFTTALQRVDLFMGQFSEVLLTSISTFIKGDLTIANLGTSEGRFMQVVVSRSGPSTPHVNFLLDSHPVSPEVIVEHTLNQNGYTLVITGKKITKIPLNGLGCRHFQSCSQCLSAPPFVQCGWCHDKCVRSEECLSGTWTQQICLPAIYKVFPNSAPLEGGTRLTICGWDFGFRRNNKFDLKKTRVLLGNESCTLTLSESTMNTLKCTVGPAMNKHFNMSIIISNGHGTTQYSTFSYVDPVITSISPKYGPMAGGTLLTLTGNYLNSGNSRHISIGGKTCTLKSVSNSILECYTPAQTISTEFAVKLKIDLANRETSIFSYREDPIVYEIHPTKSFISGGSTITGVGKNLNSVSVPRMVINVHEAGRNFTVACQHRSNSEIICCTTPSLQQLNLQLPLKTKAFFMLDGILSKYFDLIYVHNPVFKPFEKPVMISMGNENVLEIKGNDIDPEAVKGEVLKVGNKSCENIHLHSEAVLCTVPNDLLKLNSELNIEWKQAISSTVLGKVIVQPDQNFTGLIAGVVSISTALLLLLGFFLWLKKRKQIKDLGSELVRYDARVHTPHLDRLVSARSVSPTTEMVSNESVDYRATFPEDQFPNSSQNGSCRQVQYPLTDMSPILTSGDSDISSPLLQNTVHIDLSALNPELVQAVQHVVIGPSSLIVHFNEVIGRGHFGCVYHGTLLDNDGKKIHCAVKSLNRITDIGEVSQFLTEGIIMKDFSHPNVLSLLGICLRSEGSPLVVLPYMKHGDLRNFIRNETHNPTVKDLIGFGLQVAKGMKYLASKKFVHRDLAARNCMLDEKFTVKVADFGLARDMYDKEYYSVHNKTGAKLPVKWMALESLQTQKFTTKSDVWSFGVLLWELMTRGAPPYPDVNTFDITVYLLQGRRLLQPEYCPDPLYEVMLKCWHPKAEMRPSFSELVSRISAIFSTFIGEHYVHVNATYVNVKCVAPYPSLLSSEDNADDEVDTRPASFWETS

IC50 (HCT-116) [µM]	inhibition [1] [%]	IC50 [2] [µM]	IC50 (Histone deacetylase 1 [3]) [µM]	IC50 (MCF7) [µM]	inhibition (Histone deacetylase 1 [4])	IC50 (A549) [µM]	SMILES
0.3	78.2	0.0142	0.0348	1.21	86.4%	0.23	CCc1cn(-c2ccccc2)nc(C(=O)Nc2ccc(Oc3ccnc4cc(OCCCCCCC(=O)NO)c(OC)cc34)cc2)c1=O
0.69	95			2.33	53.3%	4.17	COc1cc2c(Oc3ccc(NC(=O)c4nn(-c5ccccc5)cc(C)c4=O)cc3F)ccnc2cc1OCCCCCC(=O)NO
3.98	93.5			3.2	6%	5.74	COc1cc2c(Oc3ccc(NC(=O)c4nn(-c5ccccc5C)ccc4=O)cc3F)ccnc2cc1OCCCC(=O)NO
1.12	94			2.1	7.1%	1.37	COc1cc2c(Oc3ccc(NC(=O)c4nn(-c5ccccc5F)cc(C)c4=O)cc3F)ccnc2cc1OCCCC(=O)NO
0.7	90.4			4.36	62.1%	3.92	COc1cc2c(Oc3ccc(NC(=O)c4nn(-c5ccccc5C)ccc4=O)cc3)ccnc2cc1OCCCCCC(=O)NO
0.95	90.8			2.65	9.2%	3.92	COc1cc2c(Oc3ccc(NC(=O)c4nn(-c5ccccc5F)cc(C)c4=O)cc3)ccnc2cc1OCCCC(=O)NO
4.67				5.98		7.8	COc1cc2nccc(Oc3ccc(NC(=O)C4(C(=O)Nc5ccc(F)cc5)CC4)cc3)c2cc1OC [CABOZANTINIB]
0.44	63.8			2.43	65.3%	1.84	COc1cc2c(Oc3ccc(NC(=O)c4nn(-c5ccc(C)cc5C)cc(C)c4=O)cc3)ccnc2cc1OCCCCCCC(=O)NO
0.37	61.1			2.2	40%	0.38	COc1cc2c(Oc3ccc(NC(=O)c4nn(-c5ccc(F)c(Cl)c5)cc(C)c4=O)cc3)ccnc2cc1OCCCCCCC(=O)NO
0.66	98.3			1.9	2.5%	1.9	COc1cc2c(Oc3ccc(NC(=O)c4nn(-c5ccccc5)cc(C)c4=O)cc3F)ccnc2cc1OCCCC(=O)NO
2.04	95.5			2.6	8%	2.09	COc1cc2c(Oc3ccc(NC(=O)c4nn(-c5ccccc5C)cc(C)c4=O)cc3F)ccnc2cc1OCCCC(=O)NO
9.26	63.5			8.78	inactive	5.98	COc1cc2c(Oc3ccc(NC(=O)c4nn(-c5ccccc5C)cc(C)c4=O)cc3)ccnc2cc1OCC(=O)NO
	2.8						O=C(CCCCCCC(=O)Nc1ccccc1)NO

From ChEMBL document CHEMBL4706531, “Discovery of Novel c-Mesenchymal-Epithelia transition factor and histone deacetylase dual inhibitors” (Eur J Med Chem, 2020)
